Measured values as given in PMC6868923 (EXCLI Journal, 2019).
Where “and” joins values, the source holds several entries; their conditions need not be identical. Identical values can stand only once. Like-named read-outs stand apart in the source and are kept apart here.

Columns and labels:
[1] = system: HepG2.2.15 and Vero cells
Hepatitis B virus (HBV) = assay: microbe, parasite or virus in culture; type: cell-based; conditions: read-out: EC50 HBV
in vitro [2] = conditions: human
[3] = system: poliovirus type 1 Sabin strain (PV-1); assay: microbe, parasite or virus in culture; type: cell-based; conditions: for EC50 / inhibition at 0.0001 µM / inhibition at 0.001 µM / inhibition at 0.01 µM / inhibition at 0.1 µM / inhibition at 1 µM: Enterovirus C, Vero; for EC50: 24 h, read-out: EC50 PV-1; for inhibition at 0.0001 µM / inhibition at 0.001 µM / inhibition at 0.01 µM / inhibition at 0.1 µM / inhibition at 1 µM: N 3, read-out: Inhibition percent relative to control, Polio virus (Median)
in vitro [4] = conditions: human (HepG2.2.15); African green monkey (Vero)
[5] = system: Herpes simplex type 1 F strain (HSV-1); assay: microbe, parasite or virus in culture; type: cell-based, Herpes Simplex Virus type 1; conditions: for EC50 / inhibition at 10 µM / inhibition at 0.0001 µM / inhibition at 0.001 µM / inhibition at 0.01 µM / inhibition at 0.1 µM / inhibition at 1 µM: Human alphaherpesvirus 1, Vero; for EC50: 48 h, read-out: EC50 HSV-1; for inhibition at 10 µM: read-out: Inhibitory effect against HSV-1; for inhibition at 0.0001 µM / inhibition at 0.001 µM / inhibition at 0.01 µM / inhibition at 0.1 µM / inhibition at 1 µM: N 3, read-out: Inhibition percent relative to control, Herpes simplex virus (Median)
[6] = Hepatitis B virus, HepG2.2.15, 72 h

## 24,25-dehydropollinastanol
[1]
  CC50: > 100 µM
HepG2.2.15 cells
  CC50: > 100 µM

## CC(C)CCC[C@@H](C)[C@H]1CC[C@H]2[C@@H]3CC[C@H]4C[C@@H](O)CC[C@]4(C)[C@H]3CC[C@]12C [5-α-cholestan-3-β-ol]
[1]
  CC50: > 100 µM
HepG2.2.15 cells
  CC50: > 100 µM

## CC(C)CCC[C@@H](C)[C@H]1CC[C@H]2C3=CC[C@H]4C[C@@H](O)CC[C@]4(C)[C@H]3CC[C@]12C [5-α-cholestan-7-en3-β-ol]
[1]
  CC50: > 100 µM
HepG2.2.15 cells
  CC50: > 100 µM

## C[C@@H]1O[C@@H](Oc2c(-c3cc(O)c(O)c(O)c3)oc3cc(O)cc(O)c3c2=O)[C@H](O)[C@H](O)[C@H]1O [MyrG, myricetin rhamnoside]
Hepatitis B virus (HBV)
  EC50: 0.015 µM
[1]
  CC50: > 100 µM
HepG2.2.15 cells
  CC50: > 100 µM

## C[C@@H]1O[C@@H](OC[C@H]2O[C@H](Oc3c(-c4cc(O)c(O)c(O)c4)oc4cc(O)cc(O)c4c3=O)[C@H](O)[C@@H](O)[C@H]2O)[C@H](O)[C@H](O)[C@H]1O [MyrGG, myricetin-3-α-O-ramnosil (1→6)-α-galactoside]
Hepatitis B virus (HBV)
  EC50: 12 µM
[1]
  CC50: > 100 µM
HepG2.2.15 cells
  CC50: > 100 µM

## COc1ccc(-c2oc3c(OC)c(OC)c(OC)c(O)c3c(=O)c2OC)cc1O [PMF, 5,3'-dihydroxy-3,6,7,8,4'-pentamethoxyflavone]
Hepatitis B virus (HBV); [6]
  EC50: 0.001 µM
In vitro [2]
  CC50: 10 ± 0.1 µM
[3]; 0.0001 µM
  Plaque forming units, Polio virus: 91 PFU and 92 PFU and 89 PFU
  inhibition at 0.0001 µM: 0.1%
[3]; 0.001 µM
  Plaque forming units, Polio virus: 81 PFU and 80 PFU and 78 PFU
  inhibition at 0.001 µM: 11.5%
[3]; 0.01 µM
  Plaque forming units, Polio virus: 45 PFU and 41 PFU and 48 PFU
  inhibition at 0.01 µM: 50.4%
[3]; 0.1 µM
  Plaque forming units, Polio virus: 11 PFU and 16 PFU and 10 PFU
  inhibition at 0.1 µM: 86.3%
[3]
  EC50: 1 ± 0.05 µM
  inhibition at 1 µM: 97.8%
In vitro [4]
  CC50: > 100 µM
[5]; 0.0001 µM
  Plaque forming units, Herpes simplex virus: 98 PFU and 91 PFU and 90 PFU
  inhibition at 0.0001 µM: 3.14%
[5]; 0.001 µM
  Plaque forming units, Herpes simplex virus: 82 PFU and 68 PFU and 76 PFU
  inhibition at 0.001 µM: 21.5%
[5]; 0.01 µM
  Plaque forming units, Herpes simplex virus: 68 PFU and 73 PFU and 61 PFU
  inhibition at 0.01 µM: 29.9%
[5]; 0.1 µM
  Plaque forming units, Herpes simplex virus: 48 PFU and 58 PFU and 55 PFU
  inhibition at 0.1 µM: 44.1%
[5]; 1 µM
  Plaque forming units, Herpes simplex virus: 34 PFU and 30 PFU and 37 PFU
  inhibition at 1 µM: 64.9%
[5]
  EC50: 6.8 ± 0.2 µM
  inhibition at 10 µM: 90%

## COc1ccc(-c2oc3cc(OC)c(OC)c(O)c3c(=O)c2OC)cc1OC [PMF-OH, 5-hydroxy-3,6,7,3',4'-pentamethoxyflavone]
Hepatitis B virus (HBV); [6]
  EC50: 0.098 µM
In vitro [2]
  CC50: 10 ± 0.58 µM
[3]; 0.0001 µM
  Plaque forming units, Polio virus: 92 PFU and 95 PFU and 90 PFU
  inhibition at 0.0001 µM: 0.1%
[3]; 0.001 µM
  Plaque forming units, Polio virus: 76 PFU and 70 PFU and 73 PFU
  inhibition at 0.001 µM: 18.9%
[3]; 0.01 µM
  Plaque forming units, Polio virus: 42 PFU and 40 PFU and 48 PFU
  inhibition at 0.01 µM: 51.9%
[3]; 0.1 µM
  Plaque forming units, Polio virus: 23 PFU and 20 PFU and 26 PFU
  inhibition at 0.1 µM: 74.4%
[3]
  EC50: 1.1 ± 0.03 µM
  inhibition at 1 µM: 96.3%
In vitro [4]
  CC50: > 100 µM
[5]; 0.0001 µM
  Plaque forming units, Herpes simplex virus: 96 PFU and 98 PFU and 90 PFU
  inhibition at 0.0001 µM: 1.4%
[5]; 0.001 µM
  Plaque forming units, Herpes simplex virus: 80 PFU and 82 PFU and 86 PFU
  inhibition at 0.001 µM: 13.9%
[5]; 0.01 µM
  Plaque forming units, Herpes simplex virus: 76 PFU and 73 PFU and 70 PFU
  inhibition at 0.01 µM: 24%
[5]; 0.1 µM
  Plaque forming units, Herpes simplex virus: 67 PFU and 55 PFU and 50 PFU
  inhibition at 0.1 µM: 40.3%
[5]; 1 µM
  Plaque forming units, Herpes simplex virus: 10 PFU and 5 PFU
  inhibition at 1 µM: 91.3%
[5]
  EC50: 5.9 ± 0.1 µM
  inhibition at 10 µM: 60%

## C=C(C)C1CCC2(C)CCC3(C)C(=CCC4C5(C)CCC(O)C(C)(C)C5CCC43C)C12 (stereo not drawn) [Upa-12,20(29)-dien-3-ol, lupa-12,20(29)-dien-3-ol]
[1]
  CC50: > 100 µM
HepG2.2.15 cells
  CC50: > 100 µM

## marcetol
[1]
  CC50: > 100 µM
HepG2.2.15 cells
  CC50: > 100 µM
